The results in this text go back to patent publication US10925971B2, “Methods of treating PRLR positive breast cancer” (Regeneron Pharmaceuticals, Inc., priority 2016, dated 2021).

Square brackets hold non-standard residues; d marks the D form. Peptide text beside a SMILES is read from it. * marks the point of attachment. Dolaproine = CO[C@@H]([C@@H]1CCCN1)[C@@H](C)C(=O)O; Dil = CC[C@H](C)[C@H](NC)[C@@H](CC(=O)O)OC; X1 = C[C@@H](N*)[C@@H](O)c1ccccc1; NMeV = CN[C@H](C(=O)O)C(C)C

Common to all, as to assay type: cell-based, human
For test [1], the system named is MCF7/hPRLR (MCF7/PRLR) cells. Description: In vitro cell viability (cell kill) assay, nuclear counts. The source says: (§1) PRLR-overexpressing cells, including HEK293, PC3, MCF7 and NCI-N87, were generated to assess the ability of anti-PRLR conjugated antibodies to reduce cell viability. For comparative purposes, PC3 and T47D cells with overexpressed ErbB2 were also generated, as well as an MCF7 cell line over-expressing both hPRLR and hErbB2. Briefly, Lipofectamine® 2000-mediated transfection methodology was utilized to generate HEK293 cells expressing human PRLR (HEK293/hPRLR) or human ErbB2 (HEK293/hErbB2). Lipofectamine LTX with Plus Reagent was used to generate PC3 cells expressing human PRLR (PC3/hPRLR) or human ErbB2 (PC3/hErbB2). Lentiviral-mediated transduction was utilized to generate MCF7 cells expressing human PRLR (MCF7/hPRLR), NCI-N87 cells expressing human PRLR (NCI-N87/hPRLR), T47D cells over-expressing human ErbB2 (T47D/hErbB2), and MCF7 cells expressing both human PRLR and human ErbB2 (MCF7/hPRLR/hErbB2). All lines were selected for at least two weeks in complete growth media plus appropriate selection reagents. Stably expressing populations were enriched for PRLR expression via FACS using the anti PRLR antibody Control I.
(§2) Next, the ability of anti-PRLR-DM1 antibody-drug conjugates (i.e., anti-PRLR antibodies conjugated to DM1 via a non-cleavable linker [SMCC]) to reduce cell viability was determined using in vitro cell based assays. Cells were seeded in PDL-coated 96 well plates at 1500 to 10000 cells per well in complete growth media and allowed to grow overnight. For cell viability curves, ADCs or free DM1 (as the methyl disulfide derivative DM1-SMe) were added to the cells at final concentrations ranging from 500 nM to 5 pM and incubated for 3 days. The 293, PC3 and T47D cells were incubated with CCK8 (Dojindo, Rockville, Md.) for the final 1-3 hours and the absorbance at 450 nm (OD450) was determined on a Flexstation3 (Molecular Devices, Sunnyvale, Calif.). MCF7 cells were treated with Hoechst 33342 nuclear stain while being fixed with 4% formaldehyde. Images were acquired on the ImageXpress micro XL (Molecular Devices, Sunnyvale, Calif.) and nuclear counts were determined via Columbus image analysis software (Perkin Elmer, Shelton, Conn.). Background OD450 values (PC3, 293, and T47D) or nuclear counts (MCF7) from digitonin (40 nM) treated cells was subtracted from all wells and viability was expressed as a percentage of the untreated controls. IC50 values were determined from a four-parameter logistic equation over a 10-point response curve (GraphPad Prism).

The subject of test [2] is MCF7 (MCF7/ATCC) cells. The description is as above. The conditions noted are these: MCF7/ATCC.
Source text: as §1, §2

Test [3] relates to T47D cells. Description: In vitro cell viability (cell kill) assay, CCK8. Particulars: T47D, Table 19. How it is done:
as §2

Test [4] concerns HEK293 (293) cells. Nature of the test: In vitro cell viability (cell kill) assay, CCK8. Particulars: 293; Table 19. An outline of the steps:
(§3)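 Cells stably overexpressing human PRLR (transfected or lentiviral, FACS-enriched) were treated for 3 days with anti-PRLR-SMCC-DM1 ADCs or free DM1-SMe at 500 nM to 5 pM. HEK293 and PC3 viability was read by CCK8 OD450; MCF7 by Hoechst nuclear counts. Digitonin background subtracted; % of untreated; IC50 from 10-point four-parameter fit.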

The test system of test [5] is PC3/hPRLR cells. Description: In vitro cell viability (cell kill) assay, CCK8. The conditions noted are these: Table 18. The method, boiled down:
as §3

The subject of test [6] is PC3 cells. Nature of the test: In vitro cell viability (cell kill) assay, CCK8. Particulars: Table 18. The method, boiled down: as §3

As for `CC[C@H](C)[C@@H]([C@@H](CC(=O)N1CCC[C@H]1[C@H](OC)[C@@H](C)C(=O)N[C@H](C)[C@@H](O)c1ccccc1)OC)N(C)C(=O)[C@@H](NC(=O)[C@@H](NC)C(C)C)C(C)C` [Free MMAE] (H-[NMeV]V[Dil][Dolaproine]-X1), the “% Kill” value in test [1] (Table 18) was 95%; in test [1] (Table 20) it was 95%; in test [2] (Table 18), 83%; in test [2] (Table 20), 80%; in test [3], 100%; in test [4] it was 100%. Moreover, the “% Kill” value in test [5] came to 77%; in test [6] it was 90%. For the same compound, the IC50 (as a rule, the concentration that gives 50% inhibition) in test [1] (Table 18) came to 1.5 nM; in test [1] (Table 20), 1.5 nM; in test [2] (Table 18), 2.4 nM; in test [2] (Table 20), 2.4 nM; in test [3] (read-out: IC50), 1 nM; in test [4], 0.9 nM. Also, the figures for the IC50 in test [5] and in test [6] were 1 nM and 1.4 nM, respectively.
